IC50 data for three molecules are collected here from patent publication US9340590B2 (priority 2011, dated 2016).

The target in the assay is hNav1.7 (Homo sapiens, UniProt Q15858). The experiment in a line: cell-based. It is filed as cell-based. The conditions noted are these: read-out: IWQ Use Nav1.7.
The mark [1] stands for this setting: IonWorks Quattro, clamped to −110 mV, depolarized to −10 mV, 5 min after compound, n=2.

SMILES strings stand for the structures. Like-named read-outs stand apart in the source and are kept apart here. Positions of bridges follow the written chain, without caps; N, C: chain ends. Residues, ends and D or L forms follow the SMILES beside them.

hNav1.7, sequence (Q15858 whole entry, looked up): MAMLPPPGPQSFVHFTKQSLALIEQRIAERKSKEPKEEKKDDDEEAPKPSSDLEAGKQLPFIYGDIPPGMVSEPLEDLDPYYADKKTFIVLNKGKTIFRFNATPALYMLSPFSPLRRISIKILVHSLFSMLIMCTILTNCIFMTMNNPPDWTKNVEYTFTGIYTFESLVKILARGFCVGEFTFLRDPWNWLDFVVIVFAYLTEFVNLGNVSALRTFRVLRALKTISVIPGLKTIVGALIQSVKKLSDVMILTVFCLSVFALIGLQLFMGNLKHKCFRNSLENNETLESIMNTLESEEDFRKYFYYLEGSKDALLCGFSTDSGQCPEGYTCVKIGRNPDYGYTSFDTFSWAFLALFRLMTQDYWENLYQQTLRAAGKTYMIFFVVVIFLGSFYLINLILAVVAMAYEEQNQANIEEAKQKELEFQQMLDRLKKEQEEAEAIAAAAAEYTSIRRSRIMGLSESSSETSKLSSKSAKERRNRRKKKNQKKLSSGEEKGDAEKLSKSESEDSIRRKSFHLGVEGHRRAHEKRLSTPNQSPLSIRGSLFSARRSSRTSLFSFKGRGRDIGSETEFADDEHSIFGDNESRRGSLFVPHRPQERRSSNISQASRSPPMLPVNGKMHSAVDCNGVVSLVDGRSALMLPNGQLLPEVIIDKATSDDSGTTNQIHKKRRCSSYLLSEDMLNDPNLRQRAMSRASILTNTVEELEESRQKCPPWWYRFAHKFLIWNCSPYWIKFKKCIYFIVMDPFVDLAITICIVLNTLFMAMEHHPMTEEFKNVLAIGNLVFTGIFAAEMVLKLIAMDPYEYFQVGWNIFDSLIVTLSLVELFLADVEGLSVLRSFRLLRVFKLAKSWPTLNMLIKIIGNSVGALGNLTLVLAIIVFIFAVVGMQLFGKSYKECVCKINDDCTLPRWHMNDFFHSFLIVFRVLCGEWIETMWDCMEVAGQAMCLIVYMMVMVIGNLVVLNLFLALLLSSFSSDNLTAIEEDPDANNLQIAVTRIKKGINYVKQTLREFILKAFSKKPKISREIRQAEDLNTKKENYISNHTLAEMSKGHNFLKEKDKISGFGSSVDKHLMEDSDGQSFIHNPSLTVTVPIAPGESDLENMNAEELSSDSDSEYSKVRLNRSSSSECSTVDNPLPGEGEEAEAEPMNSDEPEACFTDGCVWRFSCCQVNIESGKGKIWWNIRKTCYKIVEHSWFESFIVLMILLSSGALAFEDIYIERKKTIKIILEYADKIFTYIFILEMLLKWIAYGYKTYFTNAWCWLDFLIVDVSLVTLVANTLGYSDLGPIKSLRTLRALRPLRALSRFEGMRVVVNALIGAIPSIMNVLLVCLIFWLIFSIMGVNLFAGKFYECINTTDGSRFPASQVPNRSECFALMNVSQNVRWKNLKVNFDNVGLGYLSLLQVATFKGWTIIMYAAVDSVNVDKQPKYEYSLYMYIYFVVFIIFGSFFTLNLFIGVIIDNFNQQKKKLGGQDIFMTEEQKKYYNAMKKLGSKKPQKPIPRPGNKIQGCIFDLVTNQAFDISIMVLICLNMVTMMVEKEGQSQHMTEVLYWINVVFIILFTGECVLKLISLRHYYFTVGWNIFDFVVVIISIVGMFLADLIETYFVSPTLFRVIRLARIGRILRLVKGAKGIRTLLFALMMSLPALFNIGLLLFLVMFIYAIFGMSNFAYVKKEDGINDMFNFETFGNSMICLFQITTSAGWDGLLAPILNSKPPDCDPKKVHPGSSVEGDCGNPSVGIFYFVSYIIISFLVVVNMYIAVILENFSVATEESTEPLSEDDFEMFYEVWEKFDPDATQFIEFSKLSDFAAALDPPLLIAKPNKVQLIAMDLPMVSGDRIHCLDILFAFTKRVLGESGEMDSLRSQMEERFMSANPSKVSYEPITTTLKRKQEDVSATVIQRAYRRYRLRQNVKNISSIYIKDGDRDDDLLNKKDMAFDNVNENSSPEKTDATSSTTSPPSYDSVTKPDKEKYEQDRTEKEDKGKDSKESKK

Regarding `CC[C@H](C)[C@@H]1NC(=O)[C@@H]2CSSC[C@@H]3NC(=O)[C@H](C(C)C)NC(=O)[C@H](CC(C)C)NC(=O)[C@H](CC(N)=O)NC(=O)[C@H](CCCCN)NC(=O)[C@H](CCCNC(=N)N)NC(=O)[C@H](CSSC[C@H](NC(=O)[C@@H](N)CC(=O)O)C(=O)N[C@@H](CC(C)C)C(=O)NCC(=O)N[C@@H](Cc4ccccc4)C(=O)N[C@@H](CCSC)C(=O)N[C@@H](CCCNC(=N)N)C(=O)N[C@@H](CCCCN)C(=O)N2)NC(=O)[C@H](CSSC[C@@H](C(=O)N[C@@H](CCCCN)C(=O)N[C@@H](Cc2ccc(O)cc2)C(=O)N[C@H](C(=O)N[C@@H](Cc2ccccc2)C(N)=O)C(C)C)NC(=O)[C@H](Cc2c[nH]c4ccccc24)NC(=O)[C@H](CCCCN)NC(=O)[C@H](Cc2c[nH]cn2)NC(=O)[C@H]([C@@H](C)O)NC(=O)[C@H](CCCNC(=N)N)NC(=O)[C@H](CO)NC3=O)NC(=O)[C@H](CCCCN)NC(=O)[C@H](CC(=O)O)NC(=O)[C@H](CC(N)=O)NC(=O)[C@H](CC(=O)O)NC(=O)[C@@H]2CCCN2C1=O` [compound 50] (H-DCLGFMRKCIPDNDKCCRKNLVCSRTHKWCKYVF-NH2; disulfide 2-17, 9-23, 16-30), the IC50 turned out to be 0.12 µM.

For `CC[C@H](C)[C@@H]1NC(=O)[C@@H]2CSSC[C@@H]3NC(=O)[C@H](C(C)C)NC(=O)[C@H](CC(C)C)NC(=O)[C@H](CC(N)=O)NC(=O)[C@@H]4CCCN4C(=O)[C@H](CCCNC(=N)N)NC(=O)[C@H](CSSC[C@H](NC(=O)[C@@H](N)CC(=O)O)C(=O)N[C@@H](CC(C)C)C(=O)NCC(=O)N[C@@H](Cc4ccccc4)C(=O)N[C@@H](CCC(=O)O)C(=O)N[C@@H](CCCNC(=N)N)C(=O)N[C@@H](CCCCN)C(=O)N2)NC(=O)[C@H](CSSC[C@@H](C(=O)N[C@@H](CCCCN)C(=O)N[C@@H](Cc2ccc(O)cc2)C(=O)N[C@H](C(=O)N[C@@H](Cc2ccccc2)C(N)=O)C(C)C)NC(=O)[C@H](Cc2c[nH]c4ccccc24)NC(=O)[C@H](CCCCN)NC(=O)[C@H](Cc2c[nH]cn2)NC(=O)[C@H]([C@@H](C)O)NC(=O)[C@H](CCCNC(=N)N)NC(=O)[C@H](CO)NC3=O)NC(=O)[C@H](CCCCN)NC(=O)[C@H](CC(=O)O)NC(=O)[C@H](CC(N)=O)NC(=O)[C@H](CC(=O)O)NC(=O)[C@@H]2CCCN2C1=O` [SEQ ID NO: 144] (H-DCLGFERKCIPDNDKCCRPNLVCSRTHKWCKYVF-NH2; disulfide 2-17, 9-23, 16-30), the IC50 under setting [1] is 3.51 µM.

For `CC[C@H](C)[C@@H]1NC(=O)[C@@H]2CSSC[C@@H]3NC(=O)[C@H](C(C)C)NC(=O)[C@H](CC(C)C)NC(=O)[C@H](CC(N)=O)NC(=O)[C@@H]4CCCN4C(=O)[C@H](CCCNC(=N)N)NC(=O)[C@H](CSSC[C@H](NC(=O)[C@@H](N)CC(=O)O)C(=O)N[C@@H](CC(C)C)C(=O)NCC(=O)N[C@@H](CCCNC(=N)N)C(=O)N[C@@H](CCSC)C(=O)N[C@@H](CCCNC(=N)N)C(=O)N[C@@H](CCCCN)C(=O)N2)NC(=O)[C@H](CSSC[C@@H](C(=O)N[C@@H](CCCCN)C(=O)N[C@@H](Cc2ccc(O)cc2)C(=O)N[C@H](C(=O)N[C@@H](Cc2ccccc2)C(N)=O)C(C)C)NC(=O)[C@H](Cc2c[nH]c4ccccc24)NC(=O)[C@H](CCCCN)NC(=O)[C@H](Cc2c[nH]cn2)NC(=O)[C@H]([C@@H](C)O)NC(=O)[C@H](CCCNC(=N)N)NC(=O)[C@H](CO)NC3=O)NC(=O)[C@H](CCCCN)NC(=O)[C@H](CC(=O)O)NC(=O)[C@H](CC(N)=O)NC(=O)[C@H](CC(=O)O)NC(=O)[C@@H]2CCCN2C1=O` [SEQ ID NO: 156] (H-DCLGRMRKCIPDNDKCCRPNLVCSRTHKWCKYVF-NH2; disulfide 2-17, 9-23, 16-30), the IC50 under setting [1] was found to be 3.63 µM.
